Blank lines part the entries; values can stand above or below the compound they belong to. *1 amine or outer side, *2 acyl side, *3 side chain or, on linkers, in order; H or OH if unused. Where a SMILES comes first, the peptide text is derived from it. γGlu = O=C(O)[CH](CCC(=O)[*:2])N[*:1]
What was measured:
CaSR = tested on: CaSR; set-up: method as in PMID 19892707, PMID 27477658; details: screening of dipeptides and tripeptides, previous work; cited from earlier work
human CaSR F42S mutant = molecular target: T1, human CaSR F42S mutant (Homo sapiens, UniProt P41180, F42S); assay: Calcium mobilization assay, CaSR F42S mutant; type: cell-based; details: for Response in calcium mobilization assay: in words
T1 construct: expressed in transfected cells; host or cells: PEAKrapid cells (ATCC), pcDNA 3.1, transient transfection
T1 sequence (P41180 20-1078 F42S): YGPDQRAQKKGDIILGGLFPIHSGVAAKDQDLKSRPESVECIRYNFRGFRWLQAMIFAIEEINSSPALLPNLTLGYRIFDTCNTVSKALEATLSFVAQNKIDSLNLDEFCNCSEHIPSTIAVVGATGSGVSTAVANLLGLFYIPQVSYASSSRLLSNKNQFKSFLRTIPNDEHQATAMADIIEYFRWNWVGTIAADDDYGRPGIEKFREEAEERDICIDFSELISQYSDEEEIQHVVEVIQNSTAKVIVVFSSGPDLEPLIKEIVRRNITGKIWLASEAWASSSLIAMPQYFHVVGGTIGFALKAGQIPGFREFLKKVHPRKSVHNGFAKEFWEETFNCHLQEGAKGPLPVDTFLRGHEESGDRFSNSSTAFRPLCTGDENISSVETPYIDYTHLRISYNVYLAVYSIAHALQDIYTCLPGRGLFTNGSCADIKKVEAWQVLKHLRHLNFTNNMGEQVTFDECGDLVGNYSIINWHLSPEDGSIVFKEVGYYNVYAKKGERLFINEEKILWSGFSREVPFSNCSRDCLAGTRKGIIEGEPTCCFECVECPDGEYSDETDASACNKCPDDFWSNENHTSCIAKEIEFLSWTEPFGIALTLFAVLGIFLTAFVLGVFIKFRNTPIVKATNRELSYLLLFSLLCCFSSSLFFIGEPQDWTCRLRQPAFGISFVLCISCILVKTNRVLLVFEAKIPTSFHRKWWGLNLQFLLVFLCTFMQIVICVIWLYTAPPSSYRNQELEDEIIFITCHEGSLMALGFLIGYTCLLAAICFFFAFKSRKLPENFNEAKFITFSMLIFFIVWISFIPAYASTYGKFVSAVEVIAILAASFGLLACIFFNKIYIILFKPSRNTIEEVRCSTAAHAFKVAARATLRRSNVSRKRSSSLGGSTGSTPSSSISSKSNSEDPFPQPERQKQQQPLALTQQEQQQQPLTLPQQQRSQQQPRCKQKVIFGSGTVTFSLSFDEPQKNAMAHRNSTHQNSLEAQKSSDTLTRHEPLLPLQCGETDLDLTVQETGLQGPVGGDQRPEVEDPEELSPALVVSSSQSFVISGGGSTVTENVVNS
Protocol: The CaSR receptor responsiveness was assessed by using PEAK^rapid cells (ATCC, Manassas, VA, USA) transiently transfected with the receptor DNA by the method reported by Kitajima et al.[6]. Briefly, human CaSR or its mutant cDNA with a signal sequence (MAFYSCCWVLLALTWHTSA) followed by FLAG-tag (DYKDDDDK) were inserted into pcDNA 3.1 expression vectors in Opti-MEM I medium (Thermo Fisher Scientific), mixed with FuGENE 6 (Roche), and poured onto PEAK^rapid cells grown at a submaximal concentration. After culturing for 24 h in 96-well plates, the cells were incubated with 5 µM Calcium-5 solution (Calcium-5 assay kit, Molecular Devices) for 45–60 min, and measurements were performed using a plate reader (FDSS/µCELL, Hamamatsu Photonics, Shizuoka, Japan) and its associated software. The activation of CaSR expressed in cells increases the intracellular Ca^2+ concentration, which is measured using a Ca^2+-sensitive dye. The binding of Ca^2+ to the Ca^2+-sensitive dye increases dye fluorescence, with excitation at 485 nm and emission at 525 nm. Test compounds were dissolved and administered in the assay buffer (146 mM NaCl, 1 mM MgSO4, 20 mM HEPES, 1 mM CaCl2, 2.5 mM probenecid, and 1.39 mM glucose, pH 7.4). Transiently transfected cells were challenged with compounds and compared with the vehicle alone and/or mock-transfected cells. The concentration dependence of the fluorescence intensity (influx of Ca^2+) was analyzed using the plate reader at 1 s intervals for 180 s. For the dose–response curve calculations, peak fluorescence responses after the addition of compounds were corrected for, normalized to the background fluorescence (ΔF/F = –F − F0)/F0), and baseline noise was subtracted. Dose–response curves were calculated by non-linear regression using GraphPad PRISM 8.0.

Structure (SMILES): CC(C)C(NC(=O)CCC(N)C(=O)O)C(=O)NCC(=O)O (stereo not drawn) [γ-EVG, γ-glutamyl-valyl-glycine] (γGlu-Val-Gly-OH; configuration not given here)
CaSR activation potency (CaSR): most potent activity among those tested

Emax (% of wild-type values) (human CaSR F42S mutant): 87.0 % of WT
EC50 (human CaSR F42S mutant; mean ± s.e.m., n = 3): 6.6 ± 0.3 mM
Structure (SMILES): [Ca+2].[Cl-].[Cl-] [CaCl2]

Response in calcium mobilization assay (human CaSR F42S mutant): no response
Structure (SMILES): CC(C)[C@H](NC(=O)CC[C@H](N)C(=O)O)C(=O)O [γ-EV, γ-glutamyl-valine]

Response in calcium mobilization assay (human CaSR F42S mutant): no response
Structure (SMILES): N[C@@H](Cc1ccc(O)cc1)C(=O)O [L-Tyr, L-tyrosine]
